In ChEMBL document CHEMBL1201862, “PubChem BioAssay data set” (2004):
Values joined by “and” are separate entries in the source; they are usually repeats but may differ in a detail not shown here. Equal entries are not always repeated.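 Each compound was tested at five concentrations against cells in 96-well plates for 48 hours. Abbreviation: GI50, concentration required for 50% inhibition of growth.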 Active and inactive are the calls of the source. Cut-off read from the data, not from the text of the source: active = GI50 up to about 1.1 µM and inactive = higher.

Columns and labels:
Experiment in all cases: NCI tumour cell line growth inhibition, 48 h
[1] = test system: RPMI-8226
[2] = test system: U-251
[3] = test system: K562
[4] = test system: SW-620
[5] = test system: OVCAR-8
[6] = test system: SK-MEL-5
[7] = test system: HCT-116
[8] = test system: PC-3
[9] = test system: NCI-H460
[10] = test system: KM12
[11] = test system: SF-268
[12] = test system: SNB-19
[13] = test system: MDA-MB-231
[14] = test system: MOLT-4
[15] = test system: CCRF-CEM
[16] = test system: LOX IMVI
[17] = test system: HOP-62
[18] = test system: A498
[19] = test system: SR

Row | Structure (SMILES) | GI50 [1] | GI50 [2] | GI50 [3] | GI50 [4] | GI50 [5] | GI50 [6] | GI50 [7] | GI50 [8] | GI50 [9] | GI50 [10] | GI50 [11] | GI50 [12] | GI50 [13] | GI50 [14] | GI50 [15] | GI50 [16] | GI50 [17] | GI50 [18] | GI50 [19]
1 | NNC(=O)c1cc(=O)[nH][nH]1 | > 100 µM (inactive) | > 100 µM (inactive) | > 100 µM (inactive) | > 100 µM (inactive) | > 100 µM (inactive) | > 100 µM (inactive) | > 100 µM (inactive) | > 100 µM (inactive) | > 100 µM (inactive) | > 100 µM (inactive) | > 100 µM (inactive) | > 100 µM (inactive) | > 100 µM (inactive) | > 100 µM (inactive) | > 100 µM (inactive) |  |  |  | 
2 | Cc1ccccc1/N=N/c1c(O)ccc2ccccc12 | > 100 µM (inactive) | 70.1 µM (inactive) | > 100 µM (inactive) | > 100 µM (inactive) | > 100 µM (inactive) | > 100 µM (inactive) | 69.5 µM (inactive) | > 100 µM (inactive) |  | 16.4 µM (inactive) | 62.4 µM (inactive) | > 100 µM (inactive) | > 100 µM (inactive) | > 100 µM (inactive) | > 100 µM (inactive) | 40.5 µM (inactive) | 48.1 µM (inactive) |  | 
3 | Cc1nn2c(C(=O)N/N=C/c3ccccc3O)c(C)nc2s1 |  | 38 µM (inactive) | > 100 µM (inactive) | > 100 µM (inactive) | > 100 µM (inactive) | 60.3 µM (inactive) | 51.6 µM (inactive) |  | 49.7 µM (inactive) | > 100 µM (inactive) | > 100 µM (inactive) | > 100 µM (inactive) | > 100 µM (inactive) | 51.9 µM (inactive) | 41.2 µM (inactive) | > 100 µM (inactive) | > 100 µM (inactive) | 61.5 µM (inactive) | 
4 | O=C(N/N=C/c1ccco1)c1cc(I)cc(I)c1O | 15.2 µM (inactive) |  | 27.6 µM (inactive) | 22.2 µM (inactive) | 19.4 µM (inactive) | 12.4 µM (inactive) | 23.5 µM (inactive) | 35.2 µM (inactive) |  |  | > 50 µM (inactive) | 32.2 µM (inactive) |  | 26.3 µM (inactive) | > 50 µM (inactive) | 16.4 µM (inactive) |  | 12.9 µM (inactive) | 
5 | CCCN(CCC)C(=O)c1nc(N)nc(-c2ccc(OC)cc2)c1-c1ccc(OC)cc1 | 29 µM (inactive) | > 100 µM (inactive) | 84.1 µM (inactive) | > 100 µM (inactive) | > 100 µM (inactive) | > 100 µM (inactive) | > 100 µM (inactive) |  | > 100 µM (inactive) | > 100 µM (inactive) | > 100 µM (inactive) | > 100 µM (inactive) |  | 11.2 µM (inactive) | > 100 µM (inactive) |  |  | > 100 µM (inactive) | 
6 | COc1ccc(C(SC2C(O)C(CO)OC2n2ccc(=O)[nH]c2=O)(c2ccccc2)c2ccc(OC)cc2)cc1 (stereo unspecified) | 32.8 µM (inactive) | 13.9 µM (inactive) | 31.6 µM (inactive) | 22.2 µM (inactive) | 19.1 µM (inactive) | 14.7 µM (inactive) | 14.7 µM (inactive) | 14.9 µM (inactive) | 10.9 µM (inactive) | 15.8 µM (inactive) | 17.9 µM (inactive) | 12.4 µM (inactive) | 16.1 µM (inactive) | 26.9 µM (inactive) | 23.8 µM (inactive) | 16.9 µM (inactive) | 17.9 µM (inactive) |  | 
7 | Cn1cnc(C(N)=[Se])c1N | 2.94 µM (inactive) | 1.35 µM (inactive) |  | 4.19 µM (inactive) | 1.92 µM (inactive) | 3.21 µM (inactive) | 3.69 µM (inactive) | 2.24 µM (inactive) | 0.183 µM (active) | 2.33 µM (inactive) | 1.95 µM (inactive) | 1.29 µM (inactive) | 2.07 µM (inactive) |  | 2.24 µM (inactive) | 3.26 µM (inactive) | 2.46 µM (inactive) | 16.4 µM (inactive) | 
8 | CCCCOCn1c(=O)[nH]c(=O)c2ccccc21 |  | > 100 µM (inactive) | > 100 µM (inactive) | > 100 µM (inactive) | 37.5 µM (inactive) | 54.1 µM (inactive) | > 100 µM (inactive) |  | 88.1 µM (inactive) | > 100 µM (inactive) |  | 14.9 µM (inactive) | 33.3 µM (inactive) | > 100 µM (inactive) | > 100 µM (inactive) | > 100 µM (inactive) |  | > 100 µM (inactive) | > 100 µM (inactive)
9 | [N-]=[N+]=NCN1C(=O)C2C3C=CC(C2C1=O)C1C2C(=O)N(CN=[N+]=[N-])C(=O)C2C31 (stereo unspecified) | > 100 µM (inactive) |  | > 100 µM (inactive) | > 100 µM (inactive) | > 100 µM (inactive) | > 100 µM (inactive) | > 100 µM (inactive) | > 100 µM (inactive) | > 100 µM (inactive) | > 100 µM (inactive) | > 100 µM (inactive) | > 100 µM (inactive) |  |  |  | > 100 µM (inactive) | > 100 µM (inactive) |  | 
10 | O=C(/C=C/c1ccccc1)CSc1nc[nH]n1 | 35.1 µM (inactive) | 37.1 µM (inactive) | 46.8 µM (inactive) | 65.5 µM (inactive) | > 100 µM (inactive) | 38.5 µM (inactive) | 33 µM (inactive) | > 100 µM (inactive) | 79.4 µM (inactive) | > 100 µM (inactive) | > 100 µM (inactive) | > 100 µM (inactive) |  | 63.2 µM (inactive) | 34.8 µM (inactive) |  | > 100 µM (inactive) |  | 62.1 µM (inactive)
11 | COc1cccc(-c2nc(-c3cnccn3)n(C3OC(CO)C(O)C3O)n2)c1 (stereo unspecified) |  | > 100 µM (inactive) | > 100 µM (inactive) | > 100 µM (inactive) | > 100 µM (inactive) | > 100 µM (inactive) | > 100 µM (inactive) | > 100 µM (inactive) | > 100 µM (inactive) | > 100 µM (inactive) | > 100 µM (inactive) | > 100 µM (inactive) | > 100 µM (inactive) | > 100 µM (inactive) | > 100 µM (inactive) | > 100 µM (inactive) | > 100 µM (inactive) |  | > 100 µM (inactive)
12 | COc1cc(-c2oc3c(OC)c(OC)cc(O)c3c(=O)c2OC)ccc1O [TERNATIN] |  |  | 27.5 µM (inactive) |  | 20.7 µM (inactive) |  | 5.04 µM (inactive) and 8.69 µM (inactive) | 20.4 µM (inactive) |  |  |  | 41.6 µM (inactive) and 49.8 µM (inactive) | 15.2 µM (inactive) | 12.7 µM (inactive) | 3.38 µM (inactive) and 2.42 µM (inactive) |  |  |  | 
13 | N=C(N)NCCNC(=N)N | > 100 µM (inactive) | > 100 µM (inactive) | > 100 µM (inactive) | > 100 µM (inactive) | > 100 µM (inactive) | > 100 µM (inactive) | > 100 µM (inactive) | > 100 µM (inactive) | > 100 µM (inactive) | > 100 µM (inactive) | > 100 µM (inactive) | > 100 µM (inactive) | > 100 µM (inactive) | > 100 µM (inactive) | > 100 µM (inactive) | > 100 µM (inactive) | > 100 µM (inactive) | > 100 µM (inactive) | 
14 | CNC(=O)NS(=O)(=O)c1ccc(C)cc1.NS(=O)O | > 100 µM (inactive) | > 100 µM (inactive) | > 100 µM (inactive) | > 100 µM (inactive) | > 100 µM (inactive) | > 100 µM (inactive) | > 100 µM (inactive) | > 100 µM (inactive) | > 100 µM (inactive) | > 100 µM (inactive) | > 100 µM (inactive) | > 100 µM (inactive) | > 100 µM (inactive) | > 100 µM (inactive) | > 100 µM (inactive) | > 100 µM (inactive) | > 100 µM (inactive) |  | 
15 | COc1ccc2c3c1OC1C(OC)(OC)CC4(C=C2)CN(C)CCC314 (stereo unspecified) | > 100 µM (inactive) | > 100 µM (inactive) | 41.9 µM (inactive) | > 100 µM (inactive) | > 100 µM (inactive) | > 100 µM (inactive) | > 100 µM (inactive) |  | > 100 µM (inactive) | > 100 µM (inactive) | > 100 µM (inactive) | > 100 µM (inactive) | > 100 µM (inactive) | > 100 µM (inactive) | 30.4 µM (inactive) | > 100 µM (inactive) | > 100 µM (inactive) | 28.6 µM (inactive) | 
16 | NC1=C(Cl)C(=O)c2c(O)ccc(O)c2C1=O | 4.75 µM (inactive) | 4.12 µM (inactive) | 22.4 µM (inactive) | 3.15 µM (inactive) | 3.82 µM (inactive) | 0.735 µM (active) | 2.47 µM (inactive) | 3.47 µM (inactive) | 1.91 µM (inactive) | 2.92 µM (inactive) | 3.83 µM (inactive) | 3.89 µM (inactive) | 5.73 µM (inactive) | 6.98 µM (inactive) | 4.09 µM (inactive) | 1.79 µM (inactive) | 5.36 µM (inactive) | 14.1 µM (inactive) | 
17 | COc1cccc2c(=O)c3c(O)c4cc(N(C)C)ccc4c(OC(C)=O)c3oc12 | 13.2 µM (inactive) | 14 µM (inactive) | 15.6 µM (inactive) | 7.41 µM (inactive) | 15.7 µM (inactive) | 12.6 µM (inactive) | 13.9 µM (inactive) | 17.6 µM (inactive) | 18.2 µM (inactive) | 13 µM (inactive) | 17 µM (inactive) | 33.2 µM (inactive) | 11.4 µM (inactive) | 3.1 µM (inactive) | 5.33 µM (inactive) | 12 µM (inactive) | 15 µM (inactive) | 21 µM (inactive) | 
18 | CN1CCN(/C(N)=C(\C#N)C(=O)Nc2ccc(Cl)cc2)CC1 | 27.5 µM (inactive) | 96.8 µM (inactive) | 23 µM (inactive) | > 100 µM (inactive) | > 100 µM (inactive) | 27.5 µM (inactive) | 41.6 µM (inactive) | 39.8 µM (inactive) | 74.6 µM (inactive) | 59 µM (inactive) |  | > 100 µM (inactive) |  | 54.8 µM (inactive) | 30.1 µM (inactive) | 47.9 µM (inactive) | > 100 µM (inactive) | 40.4 µM (inactive) | 35.1 µM (inactive)
